Where two headings read alike, the source gives them in different places. Where a SMILES comes first, the peptide text is derived from it. Where no end group is shown, it is not given here. The star is where a group is joined. X1 = CCCCCCCCCCCCCCCC*
Columns and labels:
Go = molecular target: T1, Go (Bos taurus, UniProt P08239); experiment: steady state GTPase activity of Go in phospholipid vesicles; format: biochemical, bovine
T1 construct: proteins were extracted from bovine cerebral cortical membranes; from tissue; host or cells: bovine brain (cerebral cortical membranes)
T1 sequence (P08239 2-354 limits assumed): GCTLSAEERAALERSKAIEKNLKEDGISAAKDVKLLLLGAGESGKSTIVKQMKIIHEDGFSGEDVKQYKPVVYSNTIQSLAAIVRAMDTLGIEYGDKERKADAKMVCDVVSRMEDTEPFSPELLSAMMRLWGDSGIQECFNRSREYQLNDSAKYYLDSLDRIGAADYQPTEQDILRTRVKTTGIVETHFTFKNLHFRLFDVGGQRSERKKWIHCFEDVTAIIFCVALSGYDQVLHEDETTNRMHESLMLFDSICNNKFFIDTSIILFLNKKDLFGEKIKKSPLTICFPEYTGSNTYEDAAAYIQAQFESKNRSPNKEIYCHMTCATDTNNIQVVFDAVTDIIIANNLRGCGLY
T1 sequence (P62871 2-340 partner limits assumed): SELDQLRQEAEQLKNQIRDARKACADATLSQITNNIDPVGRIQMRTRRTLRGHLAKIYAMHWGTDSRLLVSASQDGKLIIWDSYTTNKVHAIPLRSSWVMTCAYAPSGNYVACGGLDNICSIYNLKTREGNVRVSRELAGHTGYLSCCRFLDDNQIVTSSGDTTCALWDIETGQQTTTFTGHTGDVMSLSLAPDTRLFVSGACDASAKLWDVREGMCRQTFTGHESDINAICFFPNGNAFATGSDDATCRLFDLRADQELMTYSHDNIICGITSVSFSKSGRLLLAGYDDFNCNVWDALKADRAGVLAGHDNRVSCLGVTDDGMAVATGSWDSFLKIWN
T1 sequence (P63212 2-68 partner limits assumed): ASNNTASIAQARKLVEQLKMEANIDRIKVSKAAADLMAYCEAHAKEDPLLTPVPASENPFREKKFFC
From the text: (§1) G proteins were reconstituted into phospholipid vesicles composed of dioleoyl-PC/bovine brain PS/1-palmitoyl,2-oleoyl-PE (3:4:3) as reported previously by Higashijima et al., 1988, incorporated herein by reference.

Gi = experiment: steady state GTPase activity of Gi in phospholipid vesicles; format: biochemical, rabbit;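 also: Steady-state GTP hydrolysis by Gi measured in a detergent-free buffer containing 1.1 mM MgSO4 plus the specified guanine nucleotide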
Protocol: as §1
The concentration of free Mg^2+ in assay medium that contains 5 mM EDTA and no added Mg^2+ is estimated to be 0.1-0.2 nM according to Brandt et al., 1988 and 1983.

Gs = Gs (Homo sapiens, UniProt P63092); experiment: steady state GTPase activity of Gs; format: biochemical
Sequence of Gs (P63092 whole entry): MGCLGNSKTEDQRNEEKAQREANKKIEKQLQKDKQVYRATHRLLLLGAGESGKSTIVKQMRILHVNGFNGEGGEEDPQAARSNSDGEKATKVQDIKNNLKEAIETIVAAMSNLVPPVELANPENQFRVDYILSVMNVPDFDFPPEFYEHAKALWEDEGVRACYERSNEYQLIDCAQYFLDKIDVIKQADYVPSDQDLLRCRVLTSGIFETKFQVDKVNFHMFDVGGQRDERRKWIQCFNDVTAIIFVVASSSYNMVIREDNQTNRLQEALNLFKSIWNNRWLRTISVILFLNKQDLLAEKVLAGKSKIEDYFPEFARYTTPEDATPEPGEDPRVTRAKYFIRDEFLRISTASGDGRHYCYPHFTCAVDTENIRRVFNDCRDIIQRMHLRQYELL
Protocol: Methods for the assay of steady state GTP hydrolysis and GTPγS binding have been described previously by Higashijima, 1987, and Ferguson, 1986, and incorporated herein by reference. Unless noted otherwise, assays of steady state GTP hydrolysis and of the binding and dissociation of guanine nucleotides were carried out in the buffer described previously, but without detergent and with 1.1 mM MgSO4 and the nucleotide specified in the text. When necessary, the concentration of free Mg^2+ was adjusted using EDTA buffers as described previously by Higashijima, 1987, and incorporated herein by reference.
The data set forth in the following tables represent data generated by the inventors employing the steady state GTP hydrolysis, expressed as molar turnover numbers, are described herein under the "Assay" section of the Experimental Procedures in Example 1. The data has been classified according to the criteria outlined below and the effects of each peptide and modified variant on Go, Gi, and Gs have been tabulated. Table III below sets forth data generated for various mastoparan analogues designed by the inventors, in comparison with the various naturally-occurring mastoparans (e.g., MP, MP-A and MP-T). Table IV sets forth similar data generated for various receptor-based peptides designed by the inventors based on a consideration of various G-protein linked receptors.
Apparent affinity (af.) and apparent efficacy (ef.) were estimated by EC50 and maximum turnover number of GTPase activity.

[1] = Table VI, receptor-based peptides

Molecule	Go ef. (apparent efficacy, maximum turnover number of GTPase activity) (Go; [1])	Gi ef. (apparent efficacy, maximum turnover number of GTPase activity) (Gi; [1])	EC50 (Gi; Table VI, receptor-based peptides, read-out: Gi af. (apparent affinity, estimated by EC50 of GTPase activity))	Gs ef. (apparent efficacy, maximum turnover number of GTPase activity) (Gs; [1])	Goo ef. (apparent efficacy, maximum turnover number of GTPase activity) (Go; Table IV)	G1 ef. (apparent efficacy, maximum turnover number of GTPase activity) (Gi; Table IV)	EC50 (Gi; Table IV, read-out: G1 af. (apparent affinity, estimated by EC50 of GTPase activity))	Gs ef. (apparent efficacy, maximum turnover number of GTPase activity) (Gs; Table IV)
CPFRYQSLNTRARAKVI-NH2 [ER39]	F (Fair (F): 2-5 fold)	P (Poor (P): less than 2 fold)	> 100 µM	F (Fair (F): 2-5 fold)	–	–	–	–
CCCCCCCCCCCCCCCCSC[C@H](NC(=O)[C@H](CC(C)C)NC(=O)[C@H](C)NC(=O)[C@H](CCCCN)NC(=O)[C@H](C)NC(=O)[C@H](CC(C)C)NC(=O)[C@H](C)NC(=O)[C@H](C)NC(=O)[C@H](CC(C)C)NC(=O)[C@H](C)NC(=O)[C@H](CCCCN)NC(=O)[C@H](Cc1ccc(O)cc1)NC(=O)[C@H](CC(N)=O)NC(=O)[C@@H](N)[C@@H](C)CC)C(N)=O [C16-ER17] (H-INYKALAALAKALC(X1)-NH2; N-terminus assumed)	–	–	–	–	E (Excellent (E): 30-10 fold)	E (Excellent (E): 30-10 fold)	< 3 µM	F (Fair (F): 2-5 fold)

From patent US5589568A (priority 1994, dated 1996)
